Test results published in patent US11834697B2, “Electrochemical recognition and quantification of cytochrome c oxidase expression in bacteria” (OXFORD UNIVERSITY INNOVATION LIMITED, priority 2017, dated 2023).

Tests used:
[1] = system: cytochrome c oxidase in E. coli; test: Chronoamperometry of drop-cast bacteria, turnover number per single bacterium; assay type: cell-based, Escherichia coli
Description: (§1) For the localized electrochemical recognition of cytochrome c oxidases in bacteria, target cultures were immobilized onto a gold macroelectrode by drop-casting and immersed into a solution of PBS, containing 1.7 mM TMPD^+• (FIG. 3). The radical cation can be reduced electrochemically at the electrode to TMPD, providing the substrate for the target bacteria to oxidise and convert TMPD back to TMPD^+•. The chemical oxidation of TMPD to TMPD^+• can then be observed electrochemically.
A 3 mm (diameter) gold macroelectrode (Alvatek Ltd, UK) was used as the working electrode for all bioelectrochemical measurements. After polishing, sonication of the macroelectrode was applied for 2 minutes to assure removal of alumina powder from the electrode surface. Bacteria were immobilized onto the electrode by drop casting. For this purpose, the macroelectrode was placed in an electrode holder inside a 50 mL falcon tube, keeping it in an upright position. Bacteria suspension was diluted so that all depositions consisted of 3 μL bacteria suspension representing monolayer concentrations of 0.5 to 30. The falcon tube was closed and the bacteria suspension dried under N2 flow. Evaporation was monitored by eye and N2 flow was stopped the moment all liquid was evaporated. The electrode was removed from the holder and was placed in the electrochemical set up. The electrochemical cell remained thermostated to 37° C. throughout the experiments.
Chronoamperometry was carried out immediately after drop-casting of bacteria to minimize cell death at the electrode. […]
E. coli bacteria, cultured under aerobic conditions, were then investigated. […] The enhanced electrochemical signal in the presence of E. coli can also be recorded during cyclic voltammetry. However, due to the small current range detected, scan rates as low as 2 mV s^−1 need to be applied in order to visualize the oxidation process of TMPD by the bacteria. […] Consequently, chronoamperometry measurements were chosen for quantitative analyses. […]

[2] = system: cytochrome c oxidase in B. subtilis; test: as above; assay type: cell-based, Bacillus subtilis; conditions: B. subtilis grown on agar; current at 8 s; 37° C.
Description: as §1
A 3 mm (diameter) gold macroelectrode (Alvatek Ltd, UK) was used as the working electrode for all bioelectrochemical measurements. After polishing, sonication of the macroelectrode was applied for 2 minutes to assure removal of alumina powder from the electrode surface. Bacteria were immobilized onto the electrode by drop casting. […] Evaporation was monitored by eye and N2 flow was stopped the moment all liquid was evaporated. […]
As during drop-casting both living and dead bacteria in a solution are deposited at an electrode, flow cytometry measurements were performed to estimate the percentage of living cells in solution that contribute to the electrochemical signal (FIG. 7). […] Taking the electrochemical current during chronoamperometry (measurement point at 8 s), a turnover number was determined. […] As such, a turnover number per single bacterium (Tsb) could be calculated using the equation: […]

[3] = Cyclic voltammetry of TMPD-BF4 at gold macroelectrode with DigiSim simulation; assay type: physicochemical
Description: [formula] in which C is the concentration, Iss represents the steady state current, F is the Faraday constant, D is the diffusion coefficient and a is the radius of the electroactive surface of the microelectrode), and its electrochemical behaviour was analysed using cyclic voltammetry. […] Various scan rates, ranging from 30 to 300 mV s^−1, were applied. As the singly oxidized form of TMPD, the TMPD^+• radical cation can be reduced to TMPD and oxidized to TMPD^2+: TMPD^+•+e^− ? TMPD (1) TMPD^2++e^− ? TMPD^+• (2)
in which only the first redox reaction is fully reversible,[25] and will be the focus of this method. Using the commercial simulation software DigiSim® (Basi), theoretical curves were fitted to the experimental data.[26-30] […] A diffusion coefficient DTMPD-BF4 of 1.0×10^−5 cm^2 s^−1 was determined for a solution temperature of 37° C. and fixed in the DigiSim® program. Detailed information about the calculation of DTMPD-BF4 can be found below. Following the approach in the literature,[31] the redox reaction (1) was simulated to determine the Butler-Volmer kinetic parameters of TMPD^+• reduction at the macroelectrode and a fitting of the concentration-independent heterogeneous standard electrochemical rate constant (ks), as well as the standard electrode potential E0, was conducted. To account for minor solution changes related to the oxidation of TMPD by oxygen, the initial concentration ratio of TMPD to TMPD^+• was slightly adjusted for each scan without changing the overall shape or position of the simulated curves. This allowed an offset correction for the presented curves and a capacitive contribution of between 10 to 30 μF was attributed. From the simulations, the standard electrochemical rate constant ks was determined to be equal to or greater than 0.025 cm s^−1, and a standard electrode potential E0 of 0.013 (±0.001) V vs. SCE was determined. […]
A diffusion coefficient (DTMPD-BF4) of 1×10^−5 cm^2 s^−1 was found following the reversible Randles-Ševčík method. […] The diffusion coefficient was determined using the equation

CN(C)c1ccc(N(C)C)cc1 [TMPD, N,N,N′,N′-tetramethyl-para-phenylene diamine]
turnover number per single bacterium (Tsb) ([1]; E. coli grown aerobically (exponential phase)): 3.8 (±0.06)×10^8 L mol^−1 s^−1
turnover number per single bacterium (Tsb) ([1]; E. coli grown in broth to the stationary phase): 1.8 (±0.3)×10^9 L mol^−1 s^−1
turnover number per single bacterium (Tsb) ([1]; E. coli grown to the exponential phase (aerobic), current at 8 s): 3.8 (±0.06)×10^8 L mold s^−1
turnover number per single bacterium (Tsb) [2]: 9.8 (±0.3)×10^8 L mol^−1 s^−1

N,N,N′,N′-tetramethyl-para-phenylene diamine tetrafluoroborate [TMPD-BF4]
diffusion coefficient DTMPD-BF4 ([3]; 2.1 mM TMPD-BF4 in PBS pH 7.4, 37° C., Randles-Ševčík, 3 mm gold electrode): 1×10^−5 cm^2 s^−1
standard electrochemical rate constant ks ([3]; TMPD^+• reduction at gold macroelectrode, fitted by simulation): ≥ 0.025 cm/s
standard electrode potential E0 ([3]; TMPD^+•/TMPD couple, fitted by simulation): 0.013 (±0.001) V vs. SCE
